Experimental data reported in patent publication US9371307B2, “Serine protease inhibitors” (THE JOHNS HOPKINS UNIVERSITY, priority 2011, dated 2016).
Where two headings read alike, the source gives them in different places.

Legend:
Format in all cases: biochemical
Tryptase = Tryptase (Homo sapiens, UniProt Q15661); assay: Selectivity of chymase inhibitors against tryptase; conditions: ratio of Ki enzyme/Ki chymase
Procedure: (§1) As provided in Table 1, hereinabove in Example 2, selectivity was tested by measuring the inhibitory activity of ef-rs-03-075 and analogs against other serine proteases, including thrombin, trypsin, and tryrptase.

DPPIV = DPPIV (Homo sapiens, UniProt P27487); assay: Selectivity of chymase inhibitors against DPPIV; conditions: ratio of Ki enzyme/Ki chymase
human chymase = biological target: T1, human chymase (Homo sapiens, UniProt P23946); assay: Inhibition of chymase (Ki; Lineweaver-Burk double reciprocal plots)
T1 construct: In its active form within the secretory granules of mast cells, human chymase contains 226 amino acid residues
T1 sequence (P23946 22-247): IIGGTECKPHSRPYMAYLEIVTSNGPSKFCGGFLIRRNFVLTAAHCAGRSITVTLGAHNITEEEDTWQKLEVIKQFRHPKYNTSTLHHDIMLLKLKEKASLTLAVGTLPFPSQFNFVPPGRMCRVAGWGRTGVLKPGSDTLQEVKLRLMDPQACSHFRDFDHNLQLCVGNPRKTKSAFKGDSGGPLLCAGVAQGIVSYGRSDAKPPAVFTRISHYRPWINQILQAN

Thrombin = Thrombin (Homo sapiens, UniProt P00734); assay: Selectivity of chymase inhibitors against thrombin; conditions: ratio of Ki enzyme/Ki chymase
Procedure: as §1

Trypsin = assay: Selectivity of chymase inhibitors against trypsin; conditions: ratio of Ki enzyme/Ki chymase
Procedure: as §1

Chain of Tryptase (Q15661 31-275): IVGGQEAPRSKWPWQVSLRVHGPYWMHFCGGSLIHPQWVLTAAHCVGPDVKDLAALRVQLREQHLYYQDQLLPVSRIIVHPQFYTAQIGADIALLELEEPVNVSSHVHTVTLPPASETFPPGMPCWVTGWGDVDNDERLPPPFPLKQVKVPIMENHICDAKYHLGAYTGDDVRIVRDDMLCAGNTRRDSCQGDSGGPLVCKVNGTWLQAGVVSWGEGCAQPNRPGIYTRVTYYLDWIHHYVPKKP
Chain of DPPIV (P27487 whole entry, species assumed): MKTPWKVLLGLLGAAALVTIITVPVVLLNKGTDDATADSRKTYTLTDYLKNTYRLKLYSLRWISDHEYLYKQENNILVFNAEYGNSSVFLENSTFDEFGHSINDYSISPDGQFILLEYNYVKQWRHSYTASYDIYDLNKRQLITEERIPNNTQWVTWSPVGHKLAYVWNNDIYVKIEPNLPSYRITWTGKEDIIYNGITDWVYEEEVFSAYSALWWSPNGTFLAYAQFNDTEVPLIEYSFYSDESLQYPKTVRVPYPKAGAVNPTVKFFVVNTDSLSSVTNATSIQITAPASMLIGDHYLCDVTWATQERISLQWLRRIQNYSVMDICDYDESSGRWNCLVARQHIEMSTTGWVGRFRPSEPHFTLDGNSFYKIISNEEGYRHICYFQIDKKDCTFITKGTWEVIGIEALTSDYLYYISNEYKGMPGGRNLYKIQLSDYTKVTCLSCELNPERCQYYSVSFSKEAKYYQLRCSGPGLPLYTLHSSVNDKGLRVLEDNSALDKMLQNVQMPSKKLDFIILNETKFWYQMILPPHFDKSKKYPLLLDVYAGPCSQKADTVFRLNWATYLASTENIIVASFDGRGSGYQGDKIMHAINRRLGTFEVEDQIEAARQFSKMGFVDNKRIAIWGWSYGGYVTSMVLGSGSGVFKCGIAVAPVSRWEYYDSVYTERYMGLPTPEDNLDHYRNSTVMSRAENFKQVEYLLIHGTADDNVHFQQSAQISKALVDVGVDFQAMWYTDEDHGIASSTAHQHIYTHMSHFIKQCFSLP

Compound | Selectivity of chymase inhibitors: Tryptase (Tryptase) | Selectivity of chymase inhibitors: DPPIV (DPPIV) | Ki (human chymase; read-out: Chymase Ki) | Selectivity of chymase inhibitors: Thrombin (Thrombin) | Selectivity of chymase inhibitors: Trypsin (Trypsin) | inhibitory mechanism (human chymase; double reciprocal plot of substrate concentration vs. reaction velocity, various inhibitor concentrations (FIG. 4)) | Ki (human chymase; value given in the description text as 'high affinity', read-out: affinity)
O=S(=O)(/C=C/c1cccc(Cl)c1)N(Cc1ccc(Cl)cc1)c1cccc(Cl)c1 [ef-rs-08-056] | >310 | 80 | 1260 ± 200 nM | 20 | – | – | –
O=S(=O)(/C=C/c1cccc(Cl)c1)N(Cc1cccc(Cl)c1)c1cccc(Cl)c1 [ef-rs-03-075, (E)-N-(3-chlorobenzyl)-N,2-bis(3-chlorophenyl)ethenesulfonamide] | >410 | 37 | 959 ± 42 nM | >320 | >110 | competitive inhibition | 544 nM
O=S(=O)(/C=C/c1cccc(Cl)c1)N(Cc1cccc(F)c1)c1cccc(Cl)c1 [ef-rs-08-057] | >80 | 70 | 1190 ± 120 nM | >50 | – | – | –
O=S(=O)(/C=C/c1cccc(Cl)c1)N(Cc1ccsc1)c1cccc(Cl)c1 [ef-rs-03-038-P1] | >240 | 34 | 1570 ± 390 nM | >60 | – | – | –
O=S(=O)(/C=C/c1cccc(Cl)c1)N(Cc1ccc(Cl)c(Cl)c1)c1cccc(Cl)c1 [ef-rs-08-051] | >110 | 16 | 903 ± 150 nM | 70 | – | – | –
O=S(=O)(/C=C/c1cccc(Cl)c1)N(Cc1cccc(Cl)c1)c1cccc(OCc2cccc(Cl)c2)c1 [ef-rs-08-052] | >100 | 10 | 978 ± 87 nM | >75 | – | – | –
O=S(=O)(/C=C/c1cccc(Cl)c1)N(Cc1ccccc1)c1cccc(Cl)c1 [ef-rs-03-019-P4] | >275 | >100 | 1320 ± 280 nM | >200 | – | – | –
O=S(=O)(/C=C/c1cccc(Br)c1)N(Cc1ccccc1)c1cccc(Cl)c1 [ef-rs-03-015-P2] | >260 | >100 | 1580 ± 130 nM | >200 | – | – | –
Cc1cccc(CN(c2cccc(Cl)c2)S(=O)(=O)/C=C/c2cccc(Cl)c2)c1 [ef-rs-08-049] | >350 | 170 | 1110 ± 220 nM | 13 | – | – | –
O=S(=O)(/C=C/c1cccc(Cl)c1)N(Cc1cccc(Br)c1)c1cccc(Cl)c1 [ef-rs-08-050] | >320 | 40 | 1220 ± 190 nM | 45 | – | – | –
O=S(=O)(/C=C/c1cccc(Br)c1)N(Cc1ccsc1)c1cccc(Cl)c1 [ef-rs-03-039-P1] | >310 | 17 | 1340 ± 390 nM | >60 | – | – | –
